# Like-named read-outs stand apart in the source and are kept apart here.
# What was measured:
# [1] = tested on: rabbit cornea; test: Local contact anesthesia on the rabbit cornea; type: in vivo; details: solution at 0.25% or 1% by weight, eyewash instillation
# From the text: For example, the derivatives described in Examples 2, 3, 4, 6, 7 and 9 are local anesthetics (100% anesthesia) in a solution at 0.25% or 1% by weight.
# [2] = tested on: isolated guinea pig auricle; test: Maximum stimulation frequency test on isolated guinea pig auricle; details: Cavia porcellus; 10 mg/l; read-out: Δ% MFS (decrease of the maximum frequency followed)
# Method: The maximum frequency test carried out studied the maximum stimulation frequency which can cause contraction of an isolated guinea pig auricle placed in a solution containing a derivative of the invention. The measurement was carried out before (control period) and then after introduction of the derivative into the solution.
# [3] = tested on: ventricular arrhythmias induced by aconitine in the anesthetized rat; test: Antiarrhythmic test with aconitine on the rat; type: in vivo
# Method: The derivatives of the invention were used in the test with aconitine on the rat. For this test, the anesthetized rat was intoxicated by an intravenous perfusion of aconitine (solution of aconitine nitrate: 15 mg/l; speed of perfusion: 0.4 ml/min) while its electrocardiogram was recorded permanently. During perfusion at constant speed, the time necessary for the appearance of ventricular arrhythmias, successively ventricular extrasystoles (ESV), ventricular tachycardium (TV) and ventricular fibrillation (FV) was measured.
# The animals were divided into a control group (untreated) and treated group (different doses). The results are expressed as a percentage of prolonging the time of the appearance of the arrhythmias in the treated groups in relation to the control group. This prolongation of arrhythmia appearance time therefore corresponds to myocardiac protection against the arrhythmic effects of aconitine.
# [4] = Acute toxicity (lethal dose 50) in the mouse; details: in vivo
# From the text: The acute toxicity of the deriatives of the invention were studied by oral administration (P.O) to the mouse (10 animals, 5 males and 5 females per dose) and calculation of the lethal dose 50 (LD 50) in accordance with the method of Litchfield and Wilcoxon (J. Pharmacol., 96, 99-113 (1949)). Table 1 gives the LD 50 values of the derivatives of the invention.
# In certain cases, the LD 50 was also studied after intraperitoneal injection (I.P.) of the derivatives.
# [5] = tested on: anoxic ventricular fibrillation in mice; test: Cardiac antifibrillatory activity on the mouse (Lawson test); type: in vivo; details: ip, intraperitoneal, 10 minutes before chloroform, read-out: ED 50 (protects half the mice against anoxic ventricular fibrillation)
# Method: Cardiac antifibrillatory activity of the derivatives of the invention has been verified on the mouse using the Lawson test, in accordance with the method described by J. W. Lawson, J. Pharmacol. Exp. Therp. 160, 22-31 (1968), and C. Narcisse et al., Ann. Pharm. Fr. 37, 325-330 (1979).
# The mice (20 per dose) received an intraperitoneal injection of the derivative 10 minutes before being placed in a chloroform saturated atmosphere. As soon as respiratory arrest occurred, the thorax was opened (5 to 10 seconds) and the state of the heart was checked: presence or absence of ventricular fibrillation. The efficacy dose 50 (ED 50) of the derivative being studied is the dose which protects half the mice against anoxic ventricular fibrillation.
# [6] = tested on: anesthetized dog; test: Hemodynamic effects on the anesthetized dog; type: in vivo; details: anesthetized dog, i.v.
# Method: Cardiovascular tolerance was studied on the isolated guinea pig auricle, on the anesthetized rat and on the anesthetized dog.
# On the anesthetized dog, the results obtained with respect to hemodynamic tolerance are summarized in Table 2 below which indicates the percentages of variation of the hemodynamic parameters in relation to the pre-treatment control period for the derivatives of Examples 2 and 4.
# The parameters were recorded by means of:
# Catheters connected to pressure sensors (arterial pressure, left ventricular pressure and its first derivative dp/dt);
# Electromagnetic flowmeter on the aorta (aortic flow);
# Strain gauge placed on the left ventricular myocardium (force of myocardiac contraction).
# The derivatives were injected intraveneously, one dose approximately every 30 minutes and their effects were measured 20 minutes after the completion of the injection (length of the injection 2 minutes).
# [7] = read-out: Prolongation of time of appearance of ventricular extrasystoles (ESV)
# [8] = read-out: Prolongation of time of appearance of ventricular fibrillation (FV)
# [9] = read-out: Prolongation of time of appearance of ventricular tachycardium (TV)
# [10] = oral (P.O.), 5 males and 5 females per dose, read-out: LD 50 P.O.
# [11] = ip, intraperitoneal (I.P.), read-out: LD 50 I.P.
SMILES,inhibition at 10 µg/mL [2] [%],"LD50 [4, 10] [mg/kg]",ED50 [5] [mg/kg],"LD50 [4, 11] [mg/kg]",other results
Clc1ccc(-c2cc(OCCN3CCCCC3)[nH]n2)cc1 [Example 6],46,500,–,–,"local anesthesia [1]: 100%; change in vivo at 3 mg/kg [3, 7]: 13%; change in vivo at 3 mg/kg [3, 8]: 18%; change in vivo at 3 mg/kg [3, 9]: 21%"
CN(C)CCCOc1cc(-c2ccccc2)[nH]n1 [Example 8],–,1000,–,–,–
Cc1c(-c2ccc(Cl)cc2)n[nH]c1OCCCN1CCCCC1 [Example 19],52,250,21.5,62 to 125,"Cardiac frequency (result in words) [6]: does not change; Systolic arterial pressure (result in words) [6]: drops moderately; force of ventricular myocardiac contractions (result in words) [6]: decreases; cumulative dose at which a 20% drop of cardiac flow is reached ([6]; cumulative dose): greater than 4 mg/kg; change in vivo at 10 mg/kg [3, 7]: 15%; change in vivo at 10 mg/kg [3, 8]: 35%; change in vivo at 10 mg/kg [3, 9]: 15%"
"CN(C)CCCOc1cc(-c2ccc(Cl)cc2)n[nH]1 [Example 1, 3-p-Chlorophenyl-5-dimethylaminopropoxy-pyrazole]",30,1000,–,250 to 500,–
c1ccc(-c2cc(OCCN3CCCC3)[nH]n2)cc1 [Example 12],35,500 to 1000,–,–,–
Cc1c(-c2ccc(Cl)cc2)n[nH]c1OCCN1CCOCC1 [Example 16],28,500 to 1000,–,125 to 250,–
Cc1c(-c2ccccc2)n[nH]c1OCCCN1CCCCC1 [Example 14],40,250,62,–,Cardiac frequency (result in words) [6]: drops moderately; Systolic arterial pressure (result in words) [6]: drops moderately; force of ventricular myocardiac contractions (result in words) [6]: does not vary significantly
Clc1ccc(-c2cc(OCCN3CCCC3)[nH]n2)cc1 [Example 7],45,1000,66,280,"local anesthesia [1]: 100%; change in vivo at 10 mg/kg [3, 7]: 11%; change in vivo at 10 mg/kg [3, 8]: 32%; change in vivo at 10 mg/kg [3, 9]: 45%"
